The text below walks through data of patent US8343961B2, “Substituted heterocyclic compounds” (ArQule, Inc., priority 2009, dated 2013).

One experiment addresses RET kinase (Homo sapiens, UniProt P07949). In words: RET Kinase Activity Assay. The note with it: read-out: Ret, % INH, at 30 uM. Format: biochemical. The method, then: The disclosed compounds were assayed for their ability to inhibit the activity of RET kinase. Nunc Maxwasorb plates were coated with streptavidin by overnight incubation with 100 μL per well of 1 μg/mL Streptavidin in DPBS. Prior to the start of the experiment, the plates were washed with TBST (3×200 μL) and blocked for at least 1 hour by adding 150 μL of 5% BSA/TBST. The plates were washed with TBST (3×200 […]) and left dry immediately before the capture step.
The test articles and controls (Staurosporine and Sutent) were prepared using the following assay buffer @ 3× desired final concentration (50 mM […], 0.02 mg/mL BSA, 10 mM MgCl2, 0.1 mM Na3VO4, 1 mM EGTA, 75 μM ATP0.01% NP-40, 2 mM DTT in 10% glycerol/water). In a reaction plate, were added rapidly 20 μL test article (or control) and 20 μL RET (0.25 ng/4 final concentration). The plate was incubated for 15 minutes. To the reaction plate was added 20 μL of Pyk-2 (0.25 ng/4 final concentration). The plate was incubated at room temperature for one hour.
From the reaction plate, 50 μL was transferred to the streptavidin coated plate. The capture plate was incubated at room temperature for 30 minutes then washed 6× with TBST. To the capture plate was added 100 μL/well of Cell Signaling anti-phospho tyrosine at a dilution of 1:3000 in 2% BSA/TBST. The plate was incubated for one hour at room temperature then washed 6× with TBST. To the capture plate was added 100 μL/well of Alkaline Phosphatase Tagged Goat anti Mouse Antibody at a dilution of 1:4000 in 2% BSA/TBST. The plate was incubated for one hour at room temperature then washed 6× with TBST. The fluorescent readout was initiated by the addition of 100 μL/well of Attophos reagent (6 mg/10 mL). The reading was done on the Perkin Elmer Envision system.

Another experiment deals with T1, EphA8 (Homo sapiens, UniProt P29322).
T1 sequence (P29322 28-1005): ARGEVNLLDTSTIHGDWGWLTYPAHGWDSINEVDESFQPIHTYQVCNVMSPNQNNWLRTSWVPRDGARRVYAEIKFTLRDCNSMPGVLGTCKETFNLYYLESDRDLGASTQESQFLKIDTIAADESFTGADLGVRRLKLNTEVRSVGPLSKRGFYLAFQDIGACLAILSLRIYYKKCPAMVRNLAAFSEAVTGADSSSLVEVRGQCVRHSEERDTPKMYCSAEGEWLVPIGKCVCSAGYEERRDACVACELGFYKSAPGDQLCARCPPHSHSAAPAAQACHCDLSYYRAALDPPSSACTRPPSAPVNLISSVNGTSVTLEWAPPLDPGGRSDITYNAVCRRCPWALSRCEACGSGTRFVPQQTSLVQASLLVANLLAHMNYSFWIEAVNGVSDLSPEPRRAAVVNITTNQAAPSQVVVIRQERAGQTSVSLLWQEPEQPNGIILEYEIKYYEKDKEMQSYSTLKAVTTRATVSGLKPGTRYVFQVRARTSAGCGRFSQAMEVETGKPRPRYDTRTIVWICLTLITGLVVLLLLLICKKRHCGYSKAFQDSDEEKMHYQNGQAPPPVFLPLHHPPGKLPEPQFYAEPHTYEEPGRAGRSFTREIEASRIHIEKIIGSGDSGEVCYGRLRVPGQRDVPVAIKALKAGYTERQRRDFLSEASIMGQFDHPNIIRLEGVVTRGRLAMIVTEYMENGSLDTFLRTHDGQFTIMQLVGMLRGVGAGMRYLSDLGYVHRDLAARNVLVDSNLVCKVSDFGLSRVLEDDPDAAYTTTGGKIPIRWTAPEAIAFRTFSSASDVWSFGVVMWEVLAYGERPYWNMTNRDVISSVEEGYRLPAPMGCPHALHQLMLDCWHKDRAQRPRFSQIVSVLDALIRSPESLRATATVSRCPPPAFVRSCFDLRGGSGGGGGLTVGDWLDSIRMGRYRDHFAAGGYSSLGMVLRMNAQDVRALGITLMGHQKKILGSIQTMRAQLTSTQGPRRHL
In words: EphA8 Kinase Activity Assay. The experiment is classed as biochemical. Particulars: read-out: EphA8, % INH, at 30 uM. How it is done:
Nunc Maxisorb plates are coated with streptavidin by overnight incubation with 100 μL per well of 1 μg/ml Streptavidin in DPBS. Prior to the start of the experiment, the plates are washed with TBST (3×200 μL) and blocked for at least 1 hour by adding 150 μL of 5% BSA/TBST. The plates are washed with TBST (3×200 μL/well) and left dry immediately before the capture step.
The test articles and control (Staurosporine) are prepared using the following assay buffer @ 3× desired final concentration (50 mM Tris-HCl, 0.02 mg/ml BSA, 10 mM MgCl2, 0.1 mM Na3VO4, 1 mM EGTA, 12.5 μM ATP, 0.01% NP-40, 1 mM DTT in 10% glycerol/water). In a reaction plate are added rapidly 20 μl test article (or control) and 20 μl EphA8 (0.12 ng/μl final concentration). The plate is incubated for 15 minutes. To the reaction plate is added 20 μl of Pyk-2 (0.75 ng/μl final concentration). The plate is incubated at room temperature for one hour. From the reaction plate, 50 μl is transferred to the streptavidin coated plate. The capture plate is incubated at room temperature for 30 minutes, then washed 6× with TBST. To the capture plate is added 100 μL/well of Cell Signaling anti-phospho tyrosine at a dilution of 1:3000 in 2% BSA/TBST. The plate is incubated for one hour at room temperature then washed 6× with TBST. To the capture plate is added 100 μL/well of Alkaline Phosphatase Tagged Goat anti Mouse Antibody at a dilution of 1:4000 in 2% BSA/TBST. The plate is incubated for one hour at room temperature then washed 6× with TBST. The fluorescent readout is initiated by the addition of 100 μl/well of Attophos reagent (6 mg/10 mL). The reading is done on the Perkin Elmer Envision system.

SMILES strings stand for the structures. Bounds are passed on as bounds.

Chain of RET kinase (P07949 29-1114): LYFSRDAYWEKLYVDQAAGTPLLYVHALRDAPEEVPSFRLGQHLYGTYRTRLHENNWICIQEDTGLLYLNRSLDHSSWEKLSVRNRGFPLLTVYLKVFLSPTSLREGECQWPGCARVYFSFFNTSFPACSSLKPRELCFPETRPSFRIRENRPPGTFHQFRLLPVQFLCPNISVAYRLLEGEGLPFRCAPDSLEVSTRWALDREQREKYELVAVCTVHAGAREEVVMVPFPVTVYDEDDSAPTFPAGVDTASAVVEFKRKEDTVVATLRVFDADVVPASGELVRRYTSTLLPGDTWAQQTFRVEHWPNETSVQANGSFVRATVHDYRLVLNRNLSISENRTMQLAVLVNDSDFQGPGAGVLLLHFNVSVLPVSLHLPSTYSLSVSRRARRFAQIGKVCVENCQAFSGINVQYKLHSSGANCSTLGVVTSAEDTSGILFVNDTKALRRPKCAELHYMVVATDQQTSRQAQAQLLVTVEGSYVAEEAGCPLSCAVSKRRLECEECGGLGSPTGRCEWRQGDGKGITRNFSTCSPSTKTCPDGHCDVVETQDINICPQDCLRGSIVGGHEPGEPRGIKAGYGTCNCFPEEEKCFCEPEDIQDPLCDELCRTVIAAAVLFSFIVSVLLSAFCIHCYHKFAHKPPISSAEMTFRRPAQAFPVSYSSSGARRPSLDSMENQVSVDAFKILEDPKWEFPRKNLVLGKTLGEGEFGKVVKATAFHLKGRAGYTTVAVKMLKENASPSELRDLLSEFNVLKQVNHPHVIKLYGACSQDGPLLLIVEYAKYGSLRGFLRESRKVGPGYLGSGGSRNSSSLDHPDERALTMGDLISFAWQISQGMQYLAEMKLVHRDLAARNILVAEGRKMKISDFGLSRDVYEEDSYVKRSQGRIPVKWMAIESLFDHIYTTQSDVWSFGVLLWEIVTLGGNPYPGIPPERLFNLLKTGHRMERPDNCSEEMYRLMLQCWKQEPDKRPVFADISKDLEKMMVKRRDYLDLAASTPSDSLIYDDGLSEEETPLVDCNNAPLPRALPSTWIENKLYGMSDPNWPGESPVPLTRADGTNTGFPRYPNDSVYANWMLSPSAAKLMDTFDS

Consider `Nc1nc(N2CCN(Cc3ccc(Cl)cc3)c3ccccc3C2)c2cn[nH]c2n1` [Compound 23, 4-[1-(4-chlorobenzyl)-1,2,3,5-tetrahydro-4H-1,4-benzodiazepin-4-yl]-1H-pyrazolo[3,4-d]pyrimidin-6-amine], for which the results for the inhibition at 30 µM at RET kinase and on EphA8 were less than 50% and 50 to 79%, respectively.

As for `Nc1nc(N2CCN(Cc3cccc(Cl)c3)c3ccccc3C2)c2nc[nH]c2n1` [Compound 24, 6-[1-(3-chlorobenzyl)-1,2,3,5-tetrahydro-4H-1,4-benzodiazepin-4-yl]-9H-purin-2-amine], the inhibition at 30 µM on RET kinase and on EphA8 was 50 to 79% in each case.

Turning to `Nc1nc(N2CCN(Cc3cccc(Cl)c3)c3ccccc3C2)c2cn[nH]c2n1` [Compound 25, 4-[1-(3-chlorobenzyl)-1,2,3,5-tetrahydro-4H-1,4-benzodiazepin-4-yl]-1H-pyrazolo[3,4-d]pyrimidin-6-amine], the inhibition at 30 µM at RET kinase and at EphA8 was less than 50% in each case.

`Cc1ccc(CN2CCN(c3nc(N)nc4[nH]cnc34)Cc3ccccc32)cc1` [Compound 26, 6-[1-(4-methylbenzyl)-1,2,3,5-tetrahydro-4H-1,4-benzodiazepin-4-yl]-9H-purin-2-amine]: the values for the inhibition at 30 µM at RET kinase and on EphA8 were 50 to 79% and less than 50%, respectively.

In the case of `COc1ccc(CN2CCN(c3nc(N)nc4[nH]cnc34)Cc3ccccc32)cc1OC` [Compound 27, 6-[1-(3,4-dimethoxybenzyl)-1,2,3,5-tetrahydro-4H-1,4-benzodiazepin-4-yl]-9H-purin-2-amine], the inhibition at 30 µM on RET kinase and on EphA8 was less than 50% each time.

`COc1ccc(CN2CCN(c3nc(N)nc4[nH]ncc34)Cc3ccccc32)cc1OC` [Compound 28, 4-[1-(3,4-dimethoxybenzyl)-1,2,3,5-tetrahydro-4H-1,4-benzodiazepin-4-yl]-1H-pyrazolo[3,4-d]pyrimidin-6-amine]: the inhibition at 30 µM at RET kinase and at EphA8 was less than 50% each time.

Regarding `CC(C)(C)c1ccc(CN2CCN(c3nc(N)nc4[nH]cnc34)Cc3ccccc32)cc1` [Compound 29, 6-[1-(4-tert-butylbenzyl)-1,2,3,5-tetrahydro-4H-1,4-benzodiazepin-4-yl]-9H-purin-2-amine], the inhibition at 30 µM at RET kinase is less than 50%; at EphA8 it was 50 to 79%.

Take `CC(C)(C)c1ccc(CN2CCN(c3nc(N)nc4[nH]ncc34)Cc3ccccc32)cc1` [Compound 30, 4-[1-(4-tert-butylbenzyl)-1,2,3,5-tetrahydro-4H-1,4-benzodiazepin-4-yl]-1H-pyrazolo[3,4-d]pyrimidin-6-amine]: the inhibition at 30 µM is 50 to 79% at RET kinase and less than 50% at EphA8.

Turning to `Nc1nc(N2CCN(Cc3ccc(Cl)cc3Cl)c3ccccc3C2)c2nc[nH]c2n1` [Compound 31, 6-[1-(2,4-dichlorobenzyl)-1,2,3,5-tetrahydro-4H-1,4-benzodiazepin-4-yl]-9H-purin-2-amine], the inhibition at 30 µM at RET kinase and on EphA8 was less than 50% each time.

Regarding `Nc1nc(N2CCN(Cc3ccc(Cl)cc3Cl)c3ccccc3C2)c2cn[nH]c2n1` [Compound 32, 4-[1-(2,4-dichlorobenzyl)-1,2,3,5-tetrahydro-4H-1,4-benzodiazepin-4-yl]-1H-pyrazolo[3,4-d]pyrimidin-6-amine], the inhibition at 30 µM on RET kinase and on EphA8 was less than 50% throughout.

As for `Cc1cccc(CN2CCN(c3nc(N)nc4[nH]cnc34)Cc3ccccc32)c1` [Compound 33, 6-[1-(3-methylbenzyl)-1,2,3,5-tetrahydro-4H-1,4-benzodiazepin-4-yl]-9H-purin-2-amine], the values for the inhibition at 30 µM on RET kinase and on EphA8 were 50 to 79% and less than 50%, respectively.

`Cc1cccc(CN2CCN(c3nc(N)nc4[nH]ncc34)Cc3ccccc32)c1` [Compound 34, 4-[1-(3-methylbenzyl)-1,2,3,5-tetrahydro-4H-1,4-benzodiazepin-4-yl]-1H-pyrazolo[3,4-d]pyrimidin-6-amine]: the inhibition at 30 µM on RET kinase and on EphA8 was less than 50% throughout.

As to `COc1ccc(OC)c(CN2CCN(c3nc(N)nc4[nH]cnc34)Cc3ccccc32)c1` [Compound 35, 6-[1-(2,5-dimethoxybenzyl)-1,2,3,5-tetrahydro-4H-1,4-benzodiazepin-4-yl]-9H-purin-2-amine], the inhibition at 30 µM on RET kinase and on EphA8 was less than 50% in each case.

As for `COc1ccc(OC)c(CN2CCN(c3nc(N)nc4[nH]ncc34)Cc3ccccc32)c1` [Compound 36, 4-[1-(2,5-dimethoxybenzyl)-1,2,3,5-tetrahydro-4H-1,4-benzodiazepin-4-yl]-1H-pyrazolo[3,4-d]pyrimidin-6-amine], the inhibition at 30 µM at RET kinase and at EphA8 was less than 50% in each case.

On to `Nc1nc(N2CCN(Cc3ccc(F)cc3F)c3ccccc3C2)c2nc[nH]c2n1` [Compound 37, 6-[1-(2,4-difluorobenzyl)-1,2,3,5-tetrahydro-4H-1,4-benzodiazepin-4-yl]-9H-purin-2-amine], for which the inhibition at 30 µM on RET kinase was 50 to 79%; at EphA8 it was less than 50%.

`Nc1nc(N2CCN(Cc3ccc(F)cc3F)c3ccccc3C2)c2cn[nH]c2n1` [Compound 38, 4-[1-(2,4-difluorobenzyl)-1,2,3,5-tetrahydro-4H-1,4-benzodiazepin-4-yl]-1H-pyrazolo[3,4-d]pyrimidin-6-amine]: the inhibition at 30 µM at RET kinase and on EphA8 was less than 50% throughout.

`Nc1nc(N2CCN(CCCc3cccc(F)c3)c3ccccc3C2)c2nc[nH]c2n1` [Compound 39, 6-{1-[3-(3-fluorophenyl)propyl]-1,2,3,5-tetrahydro-4H-1,4-benzodiazepin-4-yl}-9H-purin-2-amine]: the inhibition at 30 µM at RET kinase is 50 to 79%; at EphA8, less than 50%.

On to `Nc1nc(N2CCN(CCCc3ccccc3)c3ccccc3C2)c2nc[nH]c2n1` [Compound 40, 6-[1-(3-phenylpropyl)-1,2,3,5-tetrahydro-4H-1,4-benzodiazepin-4-yl]-9H-purin-2-amine], for which the inhibition at 30 µM at RET kinase is 50 to 79%; on EphA8, less than 50%.
